Experimental findings from US7074789B2, “Kinase inhibitors” (Amgen Inc., priority 1999, dated 2006) are described below.

Assay type in all cases: biochemical
One test concerns the target T1, Lck (Homo sapiens, UniProt P06239).
T1 construct: Kinases are expressed as either kinase domains or full length constructs; made in house
As to the kind of experiment: Kinase inhibition assay (33P transfer), Lck. The conditions noted are these: read-out: Lck-1. In short, it runs like this:
(§1)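 Steps: express kinase as GST or polyHistidine fusion in E. coli or High Five cells; optionally co-express or mix with regulatory polypeptides; incubate with 33P-ATP and plate-attached poly(Glu,Tyr) 4:1 or poly(Arg,Ser) 3:1; wash with 0.5% phosphoric acid; count by liquid scintillation.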

The target of the next test is T2, EGFR (Homo sapiens, UniProt P00533).
T2 construct: Kinases are expressed as either kinase domains or full length constructs; made in house
Nature of the test: Kinase inhibition assay (33P transfer), EGFR. The conditions noted are these: Table 2, kinase inhibition class; read-out: EGFR-1. Summed up: (§2)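 Kinase domains or full-length enzymes, GST- or polyHis-tagged, were expressed in E. coli or baculovirus High Five cells and affinity-purified. Transfer of 33PO4 from ATP onto plate-bound poly(Glu,Tyr) 4:1 or poly(Arg,Ser) 3:1 was counted by liquid scintillation after a 0.5% phosphoric acid wash. IC50 = concentration halving incorporation.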

Another test concerns the target T3, c-Met (Homo sapiens, UniProt P08581).
T3 construct: Kinases are expressed as either kinase domains or full length constructs; made in house
As to the kind of experiment: Kinase inhibition assay (33P transfer), c-Met. The conditions noted are these: Table 2, kinase inhibition class; read-out: Met-1. Summed up:
as §2

The target in a further test is T4, Kdr (Homo sapiens, UniProt P35968).
T4 construct: Kinases are expressed as either kinase domains or full length constructs; made in house
As to the kind of experiment: Kinase inhibition assay (33P transfer), Kdr. The conditions noted are these: read-out: KDR-1. Summed up:
as §1

The target of the next test is T5, Itk (Homo sapiens, UniProt Q08881).
T5 construct: Kinases are expressed as either kinase domains or full length constructs; made in house
T5 sequence (Q08881 1-620): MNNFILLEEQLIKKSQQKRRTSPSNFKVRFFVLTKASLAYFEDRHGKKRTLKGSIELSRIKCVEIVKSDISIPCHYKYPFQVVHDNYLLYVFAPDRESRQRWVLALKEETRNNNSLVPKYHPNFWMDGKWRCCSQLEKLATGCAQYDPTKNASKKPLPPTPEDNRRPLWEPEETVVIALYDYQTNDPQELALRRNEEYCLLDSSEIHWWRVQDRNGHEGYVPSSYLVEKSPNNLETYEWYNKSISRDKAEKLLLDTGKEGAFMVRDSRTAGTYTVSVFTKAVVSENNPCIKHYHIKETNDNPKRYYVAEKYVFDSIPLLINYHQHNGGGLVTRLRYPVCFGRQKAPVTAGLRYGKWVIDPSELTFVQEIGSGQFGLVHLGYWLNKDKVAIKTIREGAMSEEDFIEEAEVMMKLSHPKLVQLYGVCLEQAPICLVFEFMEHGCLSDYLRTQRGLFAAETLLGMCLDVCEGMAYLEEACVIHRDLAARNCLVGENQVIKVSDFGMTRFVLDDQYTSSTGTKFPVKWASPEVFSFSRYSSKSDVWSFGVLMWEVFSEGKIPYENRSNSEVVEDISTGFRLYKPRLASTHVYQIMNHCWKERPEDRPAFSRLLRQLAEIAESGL
As to the kind of experiment: Kinase inhibition assay (33P transfer), Itk. The conditions noted are these: read-out: Itk-1. Summed up:
as §2

The next test addresses T6, Tek (Homo sapiens, UniProt Q02763).
T6 construct: Kinases are expressed as either kinase domains or full length constructs; made in house
Nature of the test: Kinase inhibition assay (33P transfer), Tek. The conditions noted are these: read-out: Tek-1. The text has this:
The inhibitor compounds described herein are screened in the following manner. Kinases suitable for use in the following protocol to determine kinase activity of the compounds described herein include, -but are not limited to: Lck, Lyn, Src, Fyn, Syk, Zap-70, Itk, Tec, Btk, EGFR, ErbB2, Kdr, Flt-1, Flt-3, Tek, c-Met, InsR, and AKT.
Kinases are expressed as either kinase domains or full length constructs fused to glutathione S-transferase (GST) or polyHistidine tagged fusion proteins in either E. colior Baculovirus-High Five expression systems. They are purified to near homogeneity by affinity chromatography essentially as previously described (Lehr et al., 1996; Gish et al., 1995). In some instances, kinases are co-expressed or mixed with purified or partially purified regulatory polypeptides prior to measurement of activity.
Kinase activity and inhibition are measured essentially by established protocols (Braunwalder et al., 1996). Briefly, The transfer of ^33PO4 from ATP to the synthetic substrates poly(Glu, Tyr) 4:1 or poly(Arg, Ser) 3:1 attached to the bioactive surface of microtiter plates serves as the basis to evaluate enzyme activity. After an incubation period, the amount of phosphate transferred is measured by first washing the plate with 0.5% phosphoric acid, adding liquid scintillant, and then counting in a liquid scintillation detector. The IC50 is determined by the concentration of compound that causes a 50% reduction in the amount of […] incorporated onto the substrate bound to the plate.

For another test, the target named is T7, AKT (Homo sapiens, UniProt Q9Y243).
T7 construct: Kinases are expressed as either kinase domains or full length constructs; made in house
Nature of the test: Kinase inhibition assay (33P transfer), AKT. The conditions noted are these: Table 2, kinase inhibition class; read-out: AKT3-1. In short, it runs like this: as §1

A further test deals with T8, Zap-70 (Homo sapiens, UniProt P43403).
T8 construct: Kinases are expressed as either kinase domains or full length constructs; made in house
T8 sequence (P43403 1-619): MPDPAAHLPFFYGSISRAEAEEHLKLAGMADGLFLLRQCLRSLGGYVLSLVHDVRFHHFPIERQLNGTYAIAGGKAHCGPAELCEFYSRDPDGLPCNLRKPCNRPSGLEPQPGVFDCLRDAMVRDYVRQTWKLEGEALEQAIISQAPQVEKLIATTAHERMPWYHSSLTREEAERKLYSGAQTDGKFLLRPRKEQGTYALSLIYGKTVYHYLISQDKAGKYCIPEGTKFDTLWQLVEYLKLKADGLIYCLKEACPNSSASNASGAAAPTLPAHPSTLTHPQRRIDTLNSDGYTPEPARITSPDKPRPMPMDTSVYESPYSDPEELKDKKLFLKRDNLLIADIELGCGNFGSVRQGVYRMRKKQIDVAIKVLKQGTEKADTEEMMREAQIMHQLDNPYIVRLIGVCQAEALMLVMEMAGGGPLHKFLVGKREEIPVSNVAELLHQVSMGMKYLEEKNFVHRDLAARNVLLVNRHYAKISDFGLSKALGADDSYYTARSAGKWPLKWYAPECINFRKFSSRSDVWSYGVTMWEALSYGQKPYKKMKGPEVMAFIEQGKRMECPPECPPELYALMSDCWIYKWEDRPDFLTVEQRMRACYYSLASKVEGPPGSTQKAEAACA
Nature of the test: Kinase inhibition assay (33P transfer), Zap-70. Conditions: read-out: Zap-1. Summed up: as §1

pIC50: −log10 of the molar value. Where two headings read alike, the source gives them in different places.

T2 sequence (P00533 25-1210, species assumed): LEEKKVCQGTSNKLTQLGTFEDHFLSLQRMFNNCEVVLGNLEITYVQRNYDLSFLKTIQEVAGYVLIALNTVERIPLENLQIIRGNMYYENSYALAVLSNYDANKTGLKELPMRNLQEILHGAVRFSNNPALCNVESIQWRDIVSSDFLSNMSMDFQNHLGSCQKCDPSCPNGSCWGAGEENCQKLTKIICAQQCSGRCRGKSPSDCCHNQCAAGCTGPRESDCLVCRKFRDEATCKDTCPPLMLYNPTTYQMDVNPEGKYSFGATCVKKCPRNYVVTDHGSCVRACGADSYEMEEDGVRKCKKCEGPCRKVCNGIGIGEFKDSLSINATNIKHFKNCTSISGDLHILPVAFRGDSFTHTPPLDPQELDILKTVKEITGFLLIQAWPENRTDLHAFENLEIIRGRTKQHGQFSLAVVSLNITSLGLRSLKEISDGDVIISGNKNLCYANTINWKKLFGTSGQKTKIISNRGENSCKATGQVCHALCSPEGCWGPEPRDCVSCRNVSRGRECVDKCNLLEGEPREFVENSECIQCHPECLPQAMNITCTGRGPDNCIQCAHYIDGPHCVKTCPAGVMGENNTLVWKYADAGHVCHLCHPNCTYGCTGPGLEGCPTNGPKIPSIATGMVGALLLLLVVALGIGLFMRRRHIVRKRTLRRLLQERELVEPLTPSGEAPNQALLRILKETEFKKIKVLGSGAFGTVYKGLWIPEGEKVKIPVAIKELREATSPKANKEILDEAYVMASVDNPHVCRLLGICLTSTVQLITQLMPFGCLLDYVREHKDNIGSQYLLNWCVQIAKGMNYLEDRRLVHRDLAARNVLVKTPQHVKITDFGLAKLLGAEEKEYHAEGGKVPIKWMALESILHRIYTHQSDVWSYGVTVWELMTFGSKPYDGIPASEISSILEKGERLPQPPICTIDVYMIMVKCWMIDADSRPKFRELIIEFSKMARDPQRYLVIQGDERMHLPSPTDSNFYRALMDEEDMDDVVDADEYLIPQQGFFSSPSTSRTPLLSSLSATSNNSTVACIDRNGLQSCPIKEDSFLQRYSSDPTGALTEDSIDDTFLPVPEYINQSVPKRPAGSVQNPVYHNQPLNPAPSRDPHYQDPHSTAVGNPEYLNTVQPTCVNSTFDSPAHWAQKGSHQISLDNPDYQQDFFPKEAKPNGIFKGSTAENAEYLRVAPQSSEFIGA
T6 sequence (Q02763 23-1124, species assumed): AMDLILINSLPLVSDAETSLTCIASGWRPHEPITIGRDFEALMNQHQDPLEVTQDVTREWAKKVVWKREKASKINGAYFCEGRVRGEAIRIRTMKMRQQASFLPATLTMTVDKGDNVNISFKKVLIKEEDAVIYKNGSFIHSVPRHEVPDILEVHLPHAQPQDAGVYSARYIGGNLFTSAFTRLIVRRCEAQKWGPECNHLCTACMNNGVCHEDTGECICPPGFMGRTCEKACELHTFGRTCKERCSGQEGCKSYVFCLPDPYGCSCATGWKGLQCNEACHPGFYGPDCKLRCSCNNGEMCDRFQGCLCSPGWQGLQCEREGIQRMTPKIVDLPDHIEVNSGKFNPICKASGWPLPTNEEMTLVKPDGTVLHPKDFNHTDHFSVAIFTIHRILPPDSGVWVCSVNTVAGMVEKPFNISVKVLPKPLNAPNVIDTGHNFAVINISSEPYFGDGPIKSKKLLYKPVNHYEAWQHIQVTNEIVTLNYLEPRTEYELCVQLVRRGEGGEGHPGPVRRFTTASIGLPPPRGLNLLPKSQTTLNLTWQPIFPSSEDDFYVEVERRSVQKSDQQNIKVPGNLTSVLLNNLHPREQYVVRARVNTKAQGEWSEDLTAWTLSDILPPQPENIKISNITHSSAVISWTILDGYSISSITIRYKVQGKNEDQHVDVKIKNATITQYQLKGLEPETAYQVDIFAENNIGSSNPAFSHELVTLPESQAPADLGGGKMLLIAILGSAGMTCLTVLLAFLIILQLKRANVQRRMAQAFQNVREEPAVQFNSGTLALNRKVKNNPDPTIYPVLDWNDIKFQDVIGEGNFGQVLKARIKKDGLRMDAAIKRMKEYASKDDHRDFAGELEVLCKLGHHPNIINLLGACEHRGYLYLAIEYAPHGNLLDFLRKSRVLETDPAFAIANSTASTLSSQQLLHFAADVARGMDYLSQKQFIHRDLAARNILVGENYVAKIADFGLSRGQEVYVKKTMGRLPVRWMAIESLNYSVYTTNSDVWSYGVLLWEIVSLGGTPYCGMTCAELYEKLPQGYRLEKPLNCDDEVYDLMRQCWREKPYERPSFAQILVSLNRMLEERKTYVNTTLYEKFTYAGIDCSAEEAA
T1 sequence (P06239 whole entry, species assumed, the tested form may be a part): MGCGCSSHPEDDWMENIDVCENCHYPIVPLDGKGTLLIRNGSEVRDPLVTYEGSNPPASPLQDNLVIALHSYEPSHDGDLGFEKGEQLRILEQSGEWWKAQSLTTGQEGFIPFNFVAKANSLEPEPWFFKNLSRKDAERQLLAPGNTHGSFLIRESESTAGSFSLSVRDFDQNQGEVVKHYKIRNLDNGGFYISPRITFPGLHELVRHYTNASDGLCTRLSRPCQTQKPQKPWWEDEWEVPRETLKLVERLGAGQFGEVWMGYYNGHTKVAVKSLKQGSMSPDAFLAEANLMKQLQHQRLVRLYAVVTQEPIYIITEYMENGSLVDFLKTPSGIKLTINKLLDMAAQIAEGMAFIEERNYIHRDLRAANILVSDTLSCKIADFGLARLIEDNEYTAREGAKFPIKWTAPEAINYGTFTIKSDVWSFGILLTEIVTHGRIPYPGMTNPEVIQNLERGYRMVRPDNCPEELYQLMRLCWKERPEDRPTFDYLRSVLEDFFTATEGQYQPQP
T4 sequence (P35968 20-1356, species assumed): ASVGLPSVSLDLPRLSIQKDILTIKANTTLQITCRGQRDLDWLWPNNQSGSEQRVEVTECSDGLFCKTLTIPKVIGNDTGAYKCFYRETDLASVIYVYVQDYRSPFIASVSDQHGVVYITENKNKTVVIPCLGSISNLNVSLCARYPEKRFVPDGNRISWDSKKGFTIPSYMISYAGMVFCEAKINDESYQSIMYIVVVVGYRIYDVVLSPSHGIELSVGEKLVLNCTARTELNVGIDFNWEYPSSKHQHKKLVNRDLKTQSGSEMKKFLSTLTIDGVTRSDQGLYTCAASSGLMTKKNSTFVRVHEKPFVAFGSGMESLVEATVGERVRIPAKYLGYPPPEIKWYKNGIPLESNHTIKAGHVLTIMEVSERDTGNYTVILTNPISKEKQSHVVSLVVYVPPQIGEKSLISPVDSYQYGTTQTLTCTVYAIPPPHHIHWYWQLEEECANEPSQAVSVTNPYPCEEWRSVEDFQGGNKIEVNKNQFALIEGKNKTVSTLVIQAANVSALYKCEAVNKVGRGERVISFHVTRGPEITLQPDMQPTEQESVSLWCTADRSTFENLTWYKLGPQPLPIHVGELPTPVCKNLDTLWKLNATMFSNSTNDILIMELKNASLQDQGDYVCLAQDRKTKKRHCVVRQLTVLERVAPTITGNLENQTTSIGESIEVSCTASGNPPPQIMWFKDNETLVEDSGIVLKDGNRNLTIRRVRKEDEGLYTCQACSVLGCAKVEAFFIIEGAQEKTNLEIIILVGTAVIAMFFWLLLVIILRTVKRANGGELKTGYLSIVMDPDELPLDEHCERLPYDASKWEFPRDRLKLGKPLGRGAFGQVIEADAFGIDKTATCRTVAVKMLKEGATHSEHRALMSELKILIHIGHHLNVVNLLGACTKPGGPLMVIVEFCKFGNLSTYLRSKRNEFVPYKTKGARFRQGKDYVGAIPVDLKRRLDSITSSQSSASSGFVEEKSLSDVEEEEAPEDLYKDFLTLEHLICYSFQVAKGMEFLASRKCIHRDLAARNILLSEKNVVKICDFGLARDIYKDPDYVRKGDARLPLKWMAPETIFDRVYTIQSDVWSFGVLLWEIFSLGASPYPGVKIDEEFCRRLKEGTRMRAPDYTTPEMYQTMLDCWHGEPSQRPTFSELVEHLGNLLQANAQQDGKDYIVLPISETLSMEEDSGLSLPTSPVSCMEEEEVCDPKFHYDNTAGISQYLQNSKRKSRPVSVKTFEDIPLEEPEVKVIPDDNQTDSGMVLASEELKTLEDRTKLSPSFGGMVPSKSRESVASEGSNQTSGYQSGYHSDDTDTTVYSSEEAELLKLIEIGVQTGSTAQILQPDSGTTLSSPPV
T7 sequence (Q9Y243 whole entry, the tested form may be a part): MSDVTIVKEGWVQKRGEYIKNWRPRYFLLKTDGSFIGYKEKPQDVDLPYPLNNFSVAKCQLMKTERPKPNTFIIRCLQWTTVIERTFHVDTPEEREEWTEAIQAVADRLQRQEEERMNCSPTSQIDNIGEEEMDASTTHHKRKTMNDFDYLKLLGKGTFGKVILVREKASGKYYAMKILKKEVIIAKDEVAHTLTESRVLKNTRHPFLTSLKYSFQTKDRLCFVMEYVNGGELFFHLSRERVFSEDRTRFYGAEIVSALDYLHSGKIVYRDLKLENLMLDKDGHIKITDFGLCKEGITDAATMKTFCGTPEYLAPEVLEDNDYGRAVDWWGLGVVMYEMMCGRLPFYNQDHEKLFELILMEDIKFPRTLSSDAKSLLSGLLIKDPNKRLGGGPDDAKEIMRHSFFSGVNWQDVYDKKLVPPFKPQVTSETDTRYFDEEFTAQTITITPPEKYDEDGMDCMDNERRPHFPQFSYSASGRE

In the case of `COc1cc(Nc2nc3ccccc3n2-c2ncnc(Nc3cc(OC)c(OC)c(OC)c3)n2)cc(OC)c1` [Compound 399], the pIC50 is 5.07 to 5.18 on Lck (Table 3); less than 5.07 at EGFR; less than 5.07 on c-Met; 5.34 to 6.12 on Kdr (Table 3); less than 5.07 at Itk (Table 3); less than 5.07 at Tek. Besides, the pIC50 was 5.07 to 5.18 at AKT and less than 5.07 at Zap-70 (Table 3).

In the case of `Nc1nc2ccccc2n1-c1ncnc(Nc2ccc(-c3ccccc3)cc2)n1` [Compound 480], the pIC50 on Lck is 5.20 to 5.98; at EGFR, 5.20 to 5.98; on c-Met it was 5.20 to 5.98; at Kdr, 5.20 to 5.98; on Itk it was 4.93 to 5.04; on Tek, 5.20 to 5.98. Also, the pIC50 on AKT and on Zap-70 was 5.20 to 5.98 throughout.

Consider `O=c1[nH]c2ccccc2n1-c1ncnc(Nc2cnc3ccccc3c2)n1` [Compound 508], for which the pIC50 is 5.17 to 5.95 on Lck; less than 4.90 on EGFR; less than 4.90 at c-Met; 5.17 to 5.95 at Kdr; 5.01 to 5.17 at Itk; 5.01 to 5.17 at Tek. The pIC50 at AKT and at Zap-70 was less than 4.90 each time.

As to `Nc1nc2ccccc2n1-c1ncnc(Nc2ccc(-c3cnco3)cc2)n1` [Compound 438], the pIC50 at Lck (Table 3), at EGFR, on c-Met, on Kdr (Table 3), at Itk (Table 3) and at Tek was 5.19 to 5.97 each time. The pIC50 at AKT is 5.02 to 5.19; at Zap-70 (Table 3), 4.92 to 5.02.

Turning to `Nc1nc2ccccc2n1-c1ncnc(Nc2ccc(S(N)(=O)=O)cc2)n1` [Compound 923], the pIC50 on Lck was 4.93 to 5.04; on EGFR, less than 4.93; on c-Met it was 5.20 to 5.98; at Kdr, more than 5.98; on Itk it was 5.20 to 5.98; on Tek, less than 4.93. Moreover, the pIC50 on AKT and on Zap-70 was less than 4.93 each time.

In the case of `COc1cc(Nc2ncnc(N[C@@H](CO)c3ccccc3)n2)cc(OC)c1OC` [Compound 427], the pIC50 at Lck (Table 3), at EGFR, on c-Met, at Kdr (Table 3), at Itk (Table 3) and at Tek was less than 4.95 throughout. Moreover, the pIC50 at AKT and on Zap-70 (Table 3) was less than 4.95 in each case.

Regarding `O=c1[nH]c2ccccc2n1-c1ncnc(Nc2cc(C(F)(F)F)cc(C(F)(F)F)c2)n1` [Compound 506], the pIC50 at Lck is 4.99 to 5.10; on EGFR it was less than 4.99; at c-Met it was less than 4.99; on Kdr it was less than 4.99; at Itk, less than 4.99; at Tek, 5.10 to 5.26. Also, the pIC50 on AKT and on Zap-70 was less than 4.99 in each case.

`COc1cc(Nc2ncnc(Nc3cccc(NC(=O)O[C@@H]4CCOC4)c3)n2)cc(OC)c1OC` [Compound 694]: the pIC50 on Lck is 5.30 to 6.08; on EGFR it was 5.30 to 6.08; at c-Met, less than 5.03; on Kdr, 5.30 to 6.08; on Itk, 5.14 to 5.30; on Tek, 5.03 to 5.14. The pIC50 on AKT and at Zap-70 was less than 5.03 in each case.

Take `COc1cc(Nc2ncnc(-n3c(NCc4ccc(Br)cc4)nc4ccccc43)n2)cc(OC)c1OC` [Compound 940]: the pIC50 was 5.10 to 5.21 at Lck; less than 5.10 at EGFR; less than 5.10 at c-Met; more than 6.15 at Kdr; less than 5.10 on Itk; less than 5.10 at Tek. Besides, the pIC50 at AKT and on Zap-70 was less than 5.10 in each case.

As for `CC(C)(C)c1cc(Nc2ncnc(Nc3ccc(CC(=O)O)cc3)n2)[nH]n1` [Compound 980], the pIC50 was less than 4.91 at Lck; 5.18 to 5.96 on EGFR; 4.91 to 5.02 on c-Met; less than 4.91 on Kdr; 4.91 to 5.02 on Itk; less than 4.91 on Tek. Further, the pIC50 on AKT was 5.18 to 5.96; on Zap-70, less than 4.91.

For `O=c1[nH]c2ccccc2n1-c1ncnc(Nc2ccncn2)n1` [Compound 492], the pIC50 is less than 4.83 at Lck; 4.94 to 5.11 on EGFR; 4.94 to 5.11 at c-Met; 4.94 to 5.11 on Kdr; less than 4.83 on Itk; 4.94 to 5.11 at Tek. Moreover, the pIC50 at AKT was less than 4.83; at Zap-70, 4.83 to 4.94.

On to `O=c1[nH]c2ccccc2n1-c1ncnc(Nc2cccc(-c3cnco3)c2)n1` [Compound 418], for which the pIC50 is 5.19 to 5.97 on Lck (Table 3); 5.19 to 5.97 on EGFR; less than 4.92 on c-Met; more than 5.97 on Kdr (Table 3); 4.92 to 5.03 on Itk (Table 3); 4.92 to 5.03 on Tek. Also, the pIC50 is 5.19 to 5.97 at AKT and less than 4.92 on Zap-70 (Table 3).

In the case of `CC(C)(C)OC(=O)NCc1ccc(Nc2ncnc(Nc3cc(-c4ccco4)n[nH]3)n2)cc1` [Compound 431], the pIC50 at Lck (Table 3) is 5.00 to 5.11; on EGFR, 5.27 to 6.05; on c-Met, less than 5.00; at Kdr (Table 3) it was 5.27 to 6.05; on Itk (Table 3), 5.11 to 5.27; at Tek, 5.11 to 5.27. Further, the results for the pIC50 on AKT and at Zap-70 (Table 3) were 5.11 to 5.27 and less than 5.00, respectively.

For the molecule `COc1cc(Nc2ncnc(N)n2)cc(OC)c1OC` [Compound 1024, N-(3,4,5-trimethoxy-phenyl)-[1,3,5]triazine-2,4-diamine], the pIC50 on Lck (Table 3), on EGFR, on c-Met, on Kdr (Table 3), on Itk (Table 3) and at Tek was less than 4.79 each time. The pIC50 at Zap-70 (Table 3) is less than 4.79.

With `Nc1ncnc(Nc2ccc(C3CCCCC3)cc2)n1` [Compound 1021], the pIC50 on Lck (Table 3), on EGFR, at c-Met, on Kdr (Table 3), at Itk (Table 3) and on Tek was less than 4.78 in each case. Further, the pIC50 on Zap-70 (Table 3) is less than 4.78.
